{"source": "patent US20220168317A1", "about": "“Therapeutic Thiazine Dye Compositions and Methods of Use” (AB BioInnovations, Inc., priority 2020, published 2022)", "conditions_in_all_cases": "final concentration in well; CAMHB, 37° C., 24 hours; single compound", "key": {"[1]": {"system": "Pseudomonas aeruginosa ATCC 27853", "protocol": "(§1) Similarly, starting with a 1% methylene blue solution, a 2-fold serial dilution series was generated consisting of 24 members having a methylene blue concentration ranging from 1% to 1.1920929×10^−7%. Each dilution series was prepared using Cation-Adjusted Muller Hinton broth (CAMHB).\n(§2) For each dilution series, 0.1 ml of each dilution, in order from most concentrated to least concentrated, was placed into a separate well of a 96-well tissue-culture plate. Select bacterial species were diluted in CAMHB so that 0.1 ml contained approximately 1×10^6 bacteria per ml. […] The tissue-culture plates were incubated at 37° C. for 24 hours.\n(§3) After 24 hours, each well was visually assessed using a light microscope for bacterial growth.\n(§4) 0.1 ml of each dilution, in order from most concentrated to least concentrated, was placed into an individual well of a 96-well tissue-culture plate. Select bacterial species were diluted in CAMHB so that 0.1 ml contained approximately 1×10^6 bacteria per ml. […] The tissue-culture plates were incubated at 37° C. for 24 hours.\n(§5) After 24 hours, each well was visually assessed using a light microscope for bacterial growth. The dilution with the lowest concentrations capable of inhibiting bacterial growth was defined as the MIC."}, "[2]": {"system": "Staphylococcus aureus ATCC BAA-44", "protocol": "as §1, §2, §3, §4, §5"}, "[3]": {"system": "Klebsiella pneumoniae ATCC 13883", "protocol": "Each dilution series was prepared using Cation-Adjusted Muller Hinton broth (CAMHB).\nas §2, §3"}}}
{"molecule": "O=P(O)(O)O", "note": "[Phosphoric Acid, phosphoric acid]", "values": [{"measurement": "MIC", "setting": "[1]", "value": 0.332, "unit": "%"}, {"measurement": "MIC", "setting": "[2]", "value": 0.332, "unit": "%"}, {"measurement": "MIC", "setting": "[3]", "value": 0.332, "unit": "%"}]}
{"molecule": "CN(C)c1ccc2nc3ccc(=[N+](C)C)cc-3sc2c1", "note": "[Methylene Blue, 3,7-bis(dimethylamine)-phenothiazin-5-ium chloride]", "values": [{"measurement": "MIC", "setting": "[1]", "value": 0.5, "unit": "%"}, {"measurement": "MIC", "setting": "[2]", "value": 0.003906, "unit": "%"}, {"measurement": "MIC", "setting": "[3]", "value": 0.25, "unit": "%"}]}
